Measurements: ChEMBL document CHEMBL1127205, “Synthesis and anticonvulsant activity of 3-arylamino-4-aryl-5-(N-4-chlorophenylthiocarbamido)-1,2,4-thiadiazoles” (Bioorg Med Chem Lett, 1993)

What was measured:
[1] = Acute toxicity was measured in rats using maximal electroshock seizure test; conditions: rat, in vivo
Rattus norvegicus [2] = organism: Rattus norvegicus; assay: % protection was measured in rats using maximal electroshock seizure test; format: functional
Rattus norvegicus [3] = assay: Effective dose was measured in rats using maximal electroshock seizure test(ip); showed no protection up to 120 mg/kg (i.p. dose); format: functional, organism-based; parameters: dose 120 mg/kg
Rattus norvegicus [4] = organism: Rattus norvegicus; assay: The activity was measured by using barbiturate hypnosis potentiation effect test; format: functional
Rattus norvegicus [5] = assay: % protection was measured in rats using subcutaneous pentylenetetrazole seizure test; format: functional; parameters: concentration or dose not given beside the values
Rattus norvegicus [6] = organism: Rattus norvegicus; assay: Effective dose was measured in rats using maximal electroshock seizure test; format: functional
Rattus norvegicus [7] = assay: Sleeping time was determined in rats after administration of compound; non-significant; format: functional
[8] = Tested for therapeutic index of compound (LD50/MES ED50); conditions: rat; read-out: TI
Rattus norvegicus [9] = assay: Effective dose was measured in rats using subcutaneous pentylenetetrazole seizure test; format: functional; conditions: sc
Rattus norvegicus [10] = organism: Rattus norvegicus; assay: % protection was measured in rats using maximal electroshock seizure test; p<0.01; format: functional
Rattus norvegicus [11] = assay: % protection was measured in rats using subcutaneous pentylenetetrazole seizure test; p<0.05; format: functional
Rattus norvegicus [12] = assay: Effective dose was measured in rats using maximal electroshock seizure test(ip); showed no protection up to 100 mg/kg (i.p. dose); format: functional, organism-based; parameters: dose 100 mg/kg
Rattus norvegicus [13] = organism: Rattus norvegicus; assay: % protection was measured in rats using maximal electroshock seizure test; p<0.05; format: functional
Rattus norvegicus [14] = assay: Sleeping time was determined in rats after administration of compound; p<0.05; format: functional
Rattus norvegicus [15] = assay: Sleeping time was determined in rats after administration of compound; NS non-significant; format: functional
Rattus norvegicus [16] = assay: Sleeping time was determined in rats at 30 mg/kg intraperitoneal dose; format: functional

SMILES: Cc1ccc(Nc2ns/c(=N\C(S)=N\c3ccc(Cl)cc3)n2-c2ccc(C)cc2)cc1
- LD50 [1]: 300 mg/kg
- Protection (Rattus norvegicus [2]): 50%
- ED50 (Rattus norvegicus [3]): no protection up to 120 mg/kg
- Hypnosis potentiation (Rattus norvegicus [4]): 15.63%
- Protection (Rattus norvegicus [5]): 0%
- ED50 (Rattus norvegicus [6]): 46.7 mg/kg
- Sleeping time (Rattus norvegicus [7]): 75.45 min
- selectivity ratio [8]: 6.42

SMILES: S=C(/N=c1\snc(Nc2ccc(Cl)cc2)n1-c1ccc(Cl)cc1)Nc1ccc(Cl)cc1
- ED50 (Rattus norvegicus [9]): 22.1 mg/kg
- LD50 [1]: 117 mg/kg
- Hypnosis potentiation (Rattus norvegicus [4]): 11.58%
- ED50 (Rattus norvegicus [6]): 10 mg/kg
- Protection (Rattus norvegicus [10]): 87.5%
- Protection (Rattus norvegicus [11]): 75%
- Sleeping time (Rattus norvegicus [7]): 72.81 min
- selectivity ratio [8]: 11.7

SMILES: COc1cccc(Nc2ns/c(=N\C(S)=N\c3ccc(Cl)cc3)n2-c2cccc(OC)c2)c1
- Protection (Rattus norvegicus [2]): 0%
- ED50 (Rattus norvegicus [3]): no protection up to 100 mg/kg
- ED50 (Rattus norvegicus [12]): no protection up to 100 mg/kg
- Protection (Rattus norvegicus [5]): 0%

SMILES: COc1ccccc1Nc1ns/c(=N\C(S)=N\c2ccc(Cl)cc2)n1-c1ccccc1OC
- Protection (Rattus norvegicus [2]): 0%
- ED50 (Rattus norvegicus [3]): no protection up to 100 mg/kg
- ED50 (Rattus norvegicus [12]): no protection up to 100 mg/kg
- Protection (Rattus norvegicus [5]): 0%

SMILES: S=C(/N=c1\snc(Nc2cccc(Cl)c2)n1-c1cccc(Cl)c1)Nc1ccc(Cl)cc1
- ED50 (Rattus norvegicus [9]): 26.2 mg/kg
- LD50 [1]: 120 mg/kg
- Hypnosis potentiation (Rattus norvegicus [4]): 5.97%
- Protection (Rattus norvegicus [13]): 75%
- Protection (Rattus norvegicus [5]): 75%
- ED50 (Rattus norvegicus [6]): 17.5 mg/kg
- Sleeping time (Rattus norvegicus [7]): 69.15 min
- selectivity ratio [8]: 6.85

SMILES: O=C1NC(=O)C(c2ccccc2)(c2ccccc2)N1 [PHENYTOIN]
- ED50 (Rattus norvegicus [9]): 100 mg/kg
- LD50 [1]: 65.5 mg/kg
- Hypnosis potentiation (Rattus norvegicus [4]): 54.02%
- Sleeping time (Rattus norvegicus [14]): 100.5 min
- Protection (Rattus norvegicus [13]): 75%
- Protection (Rattus norvegicus [5]): 37.5%
- ED50 (Rattus norvegicus [6]): 9.5 mg/kg

SMILES: COc1ccc(Nc2ns/c(=N\C(S)=N\c3ccc(Cl)cc3)n2-c2ccc(OC)cc2)cc1
- ED50 (Rattus norvegicus [9]): 150 mg/kg
- LD50 [1]: 210 mg/kg
- Protection (Rattus norvegicus [2]): 50%
- Hypnosis potentiation (Rattus norvegicus [4]): 3.14%
- Sleeping time (Rattus norvegicus [15]): 67.3 min
- Protection (Rattus norvegicus [5]): 0%
- ED50 (Rattus norvegicus [6]): 20.3 mg/kg
- selectivity ratio [8]: 10.3

SMILES: Cc1ccccc1Nc1ns/c(=N\C(S)=N\c2ccc(Cl)cc2)n1-c1ccccc1C
- Protection (Rattus norvegicus [2]): 0%
- ED50 (Rattus norvegicus [3]): no protection up to 100 mg/kg
- ED50 (Rattus norvegicus [12]): no protection up to 100 mg/kg
- Protection (Rattus norvegicus [5]): 0%

SMILES: Cc1cccc(Nc2ns/c(=N\C(S)=N\c3ccc(Cl)cc3)n2-c2cccc(C)c2)c1
- Protection (Rattus norvegicus [2]): 0%
- ED50 (Rattus norvegicus [3]): no protection up to 100 mg/kg
- ED50 (Rattus norvegicus [12]): no protection up to 100 mg/kg
- Protection (Rattus norvegicus [5]): 0%

SMILES: S=C(/N=c1\snc(Nc2ccccc2Cl)n1-c1ccccc1Cl)Nc1ccc(Cl)cc1
- ED50 (Rattus norvegicus [9]): 35.1 mg/kg
- LD50 [1]: 175 mg/kg
- Hypnosis potentiation (Rattus norvegicus [4]): 20.58%
- Sleeping time (Rattus norvegicus [15]): 78.68 min
- Protection (Rattus norvegicus [13]): 75%
- Protection (Rattus norvegicus [5]): 0%
- ED50 (Rattus norvegicus [6]): 12 mg/kg
- selectivity ratio [8]: 14.6

SMILES: S=C(/N=c1\snc(Nc2ccccc2)n1-c1ccccc1)Nc1ccc(Cl)cc1
- LD50 [1]: 250 mg/kg
- Protection (Rattus norvegicus [2]): 25%
- Hypnosis potentiation (Rattus norvegicus [4]): 4.98%
- Protection (Rattus norvegicus [5]): 0%
- ED50 (Rattus norvegicus [6]): 76.5 mg/kg
- Sleeping time (Rattus norvegicus [7]): 68.5 min
- selectivity ratio [8]: 3.26

SMILES: CCCC(C)C1(CC)C(=O)N=C([O-])NC1=O.[Na+] (stereo unspecified) [PENTOBARBITAL SODIUM]
- Sleeping time (Rattus norvegicus [16]): 65.25 min
